What was measured:
SAPK2a (h) = target: T1, SAPK2a (h) (Homo sapiens, UniProt Q16539); experiment: Kinase profile, SAPK2a; type: biochemical; conditions: mean ± S.D.
T1 construct: purchased Millipore (now Eurofins) KinaseProfiler / IC50 Profiler
Experimental: (§1) All kinase assays were carried out using KinaseProfiler^TM and IC50 Profiler^TM (Millipore UK Ltd., Dundee, UK. Now Eurofins Scientific, Dundee, UK). All IC50 data were presented as the mean values. The Curves obtained to determine IC50 values were shown in Supporting Information (S1 Fig).

CDK2/cyclin E (h) = target: T2, CDK2/cyclin E (h) (Homo sapiens, UniProt P24941); experiment: Kinase profile, CDK2/cyclin E; type: biochemical; conditions: mean ± S.D.
T2 construct: purchased Millipore (now Eurofins) KinaseProfiler / IC50 Profiler
Experimental: as §1

VEGFR-1 = target: T3, VEGFR-1 (Homo sapiens, UniProt P17948); experiment: In vitro kinase assay, VEGFR-1; type: biochemical
T3 construct: purchased Millipore UK Ltd., Dundee, UK (now Eurofins Scientific); KinaseProfiler / IC50 Profiler service
Experimental: as §1

AMPKα1 (h) = target: T4, AMPKα1 (h) (Homo sapiens, UniProt Q13131); experiment: Kinase profile, AMPKα1; type: biochemical; conditions: mean ± S.D.
T4 construct: purchased Millipore (now Eurofins) KinaseProfiler / IC50 Profiler
Experimental: as §1

MAPK1 (h) = target: T5, MAPK1 (h) (Homo sapiens, UniProt P27361); experiment: Kinase profile, MAPK1; type: biochemical; conditions: mean ± S.D.
T5 construct: purchased Millipore (now Eurofins) KinaseProfiler / IC50 Profiler
Experimental: as §1

CDK9/cyclin T1 (h) = target: T6, CDK9/cyclin T1 (h) (Homo sapiens, UniProt P50750); experiment: Kinase profile, CDK9/cyclin T1; type: biochemical; conditions: mean ± S.D.
T6 construct: purchased Millipore (now Eurofins) KinaseProfiler / IC50 Profiler
Experimental: as §1

phosphorylated EGFR = experiment: Western blot of EGFR phosphorylation in HCC827 cells; type: cell-based; conditions: 3 h
Experimental: Fig 3 MKP101 inhibits proliferation of epidermal growth factor receptor (EGFR)-tyrosine kinase inhibitor (TKI)-sensitive non-small cell lung cancer (NSCLC) cells. (A) Inhibition of HCC827 cell proliferation. Cells were incubated for 72 h with a range of concentrations of MKP101, and cell viability was measured using the WST-1 assay. […] (B) Inhibition of EGFR phosphorylation in HCC827 cells. Western blot analysis using antibodies to phosphorylated and total EGFR from a representative experiment is shown. Cells were incubated for 3 h at the indicated concentration. (C) Graph showing the relative intensities of the total and phosphorylated EGFR as determined by band densitometry. IC50, half-maximal inhibitory concentration.

cKit = target: T7, cKit (Homo sapiens, UniProt P10721); experiment: In vitro kinase assay, cKit; type: biochemical
T7 construct: purchased Millipore UK Ltd., Dundee, UK (now Eurofins Scientific); KinaseProfiler / IC50 Profiler service
Experimental: as §1

PKCδ (h) = target: T8, PKCδ (h) (Homo sapiens, UniProt Q05655); experiment: Kinase profile, PKCδ; type: biochemical; conditions: mean ± S.D.
T8 construct: purchased Millipore (now Eurofins) KinaseProfiler / IC50 Profiler
Experimental: as §1

PKBβ (h) = target: T9, PKBβ (h) (Homo sapiens, UniProt P31751); experiment: Kinase profile, PKBβ; type: biochemical; conditions: mean ± S.D.
T9 construct: purchased Millipore (now Eurofins) KinaseProfiler / IC50 Profiler
Experimental: as §1

PKCβII (h) = target: T10, PKCβII (h) (Homo sapiens, UniProt P05771); experiment: Kinase profile, PKCβII; type: biochemical; conditions: mean ± S.D.
T10 construct: purchased Millipore (now Eurofins) KinaseProfiler / IC50 Profiler
Experimental: as §1

CDK3/cyclin E (h) = target: T11, CDK3/cyclin E (h) (Homo sapiens, UniProt Q00526); experiment: Kinase profile, CDK3/cyclin E; type: biochemical; conditions: mean ± S.D.
T11 construct: purchased Millipore (now Eurofins) KinaseProfiler / IC50 Profiler
Experimental: as §1

FGFR3 = target: T12, FGFR3 (Homo sapiens, UniProt P22607); experiment: In vitro kinase assay, FGFR3; type: biochemical
T12 construct: purchased Millipore UK Ltd., Dundee, UK (now Eurofins Scientific); KinaseProfiler / IC50 Profiler service
Experimental: as §1

PKCμ (h) = target: T13, PKCμ (h) (Homo sapiens, UniProt Q15139); experiment: Kinase profile, PKCμ; type: biochemical; conditions: mean ± S.D.
T13 construct: purchased Millipore (now Eurofins) KinaseProfiler / IC50 Profiler
Experimental: as §1

PhKγ2 (h) = target: T14, PhKγ2 (h) (Homo sapiens, UniProt P15735); experiment: Kinase profile, PhKγ2; type: biochemical; conditions: mean ± S.D.
T14 construct: purchased Millipore (now Eurofins) KinaseProfiler / IC50 Profiler
Experimental: as §1

MAPK2 (h) = target: T15, MAPK2 (h) (Homo sapiens, UniProt P28482); experiment: Kinase profile, MAPK2; type: biochemical; conditions: mean ± S.D.
T15 construct: purchased Millipore (now Eurofins) KinaseProfiler / IC50 Profiler
Experimental: as §1

CaMKIIδ (h) = target: T16, CaMKIIδ (h) (Homo sapiens, UniProt Q13557); experiment: Kinase profile, CaMKIIδ; type: biochemical; conditions: mean ± S.D.
T16 construct: purchased Millipore (now Eurofins) KinaseProfiler / IC50 Profiler
Experimental: as §1

PKCβI (h) = target: T17, PKCβI (h) (Homo sapiens, UniProt P05771); experiment: Kinase profile, PKCβI; type: biochemical; conditions: mean ± S.D.
T17 construct: purchased Millipore (now Eurofins) KinaseProfiler / IC50 Profiler
Experimental: as §1

CDK5/p25 (h) = target: T18, CDK5/p25 (h) (Homo sapiens, UniProt Q00535); experiment: Kinase profile, CDK5/p25; type: biochemical; conditions: mean ± S.D.
T18 construct: purchased Millipore (now Eurofins) KinaseProfiler / IC50 Profiler
Experimental: as §1

PKCα (h) = target: T19, PKCα (h) (Homo sapiens, UniProt P17252); experiment: Kinase profile, PKCα; type: biochemical; conditions: mean ± S.D.
T19 construct: purchased Millipore (now Eurofins) KinaseProfiler / IC50 Profiler
Experimental: as §1

CDK5/p35 (h) = target: T20, CDK5/p35 (h) (Homo sapiens, UniProt Q00535); experiment: Kinase profile, CDK5/p35; type: biochemical; conditions: mean ± S.D.
T20 construct: purchased Millipore (now Eurofins) KinaseProfiler / IC50 Profiler
Experimental: as §1

Abl (h) = target: T21, Abl (h) (Homo sapiens, UniProt P00519); experiment: Kinase profile, Abl; type: biochemical; conditions: mean ± S.D.
T21 construct: purchased Millipore (now Eurofins) KinaseProfiler / IC50 Profiler
Experimental: as §1

PDGFRα = target: T22, PDGFRα (Homo sapiens, UniProt P16234); experiment: In vitro kinase assay, PDGFRα; type: biochemical
T22 construct: purchased Millipore UK Ltd., Dundee, UK (now Eurofins Scientific); KinaseProfiler / IC50 Profiler service
Experimental: as §1

PDGFRβ = target: T23, PDGFRβ (Homo sapiens, UniProt P09619); experiment: In vitro kinase assay, PDGFRβ; type: biochemical
T23 construct: purchased Millipore UK Ltd., Dundee, UK (now Eurofins Scientific); KinaseProfiler / IC50 Profiler service
Experimental: as §1

CaMKIIγ (h) = target: T24, CaMKIIγ (h) (Homo sapiens, UniProt Q13555); experiment: Kinase profile, CaMKIIγ; type: biochemical; conditions: mean ± S.D.
T24 construct: purchased Millipore (now Eurofins) KinaseProfiler / IC50 Profiler
Experimental: as §1

Lyn (h) = target: T25, Lyn (h) (Homo sapiens, UniProt P07948); experiment: Kinase profile, Lyn; type: biochemical; conditions: mean ± S.D.
T25 construct: purchased Millipore (now Eurofins) KinaseProfiler / IC50 Profiler
Experimental: as §1

FGFR1 = target: T26, FGFR1 (Homo sapiens, UniProt P11362); experiment: In vitro kinase assay, FGFR1; type: biochemical
T26 construct: purchased Millipore UK Ltd., Dundee, UK (now Eurofins Scientific); KinaseProfiler / IC50 Profiler service
Experimental: as §1

T12 sequence (P22607 23-806): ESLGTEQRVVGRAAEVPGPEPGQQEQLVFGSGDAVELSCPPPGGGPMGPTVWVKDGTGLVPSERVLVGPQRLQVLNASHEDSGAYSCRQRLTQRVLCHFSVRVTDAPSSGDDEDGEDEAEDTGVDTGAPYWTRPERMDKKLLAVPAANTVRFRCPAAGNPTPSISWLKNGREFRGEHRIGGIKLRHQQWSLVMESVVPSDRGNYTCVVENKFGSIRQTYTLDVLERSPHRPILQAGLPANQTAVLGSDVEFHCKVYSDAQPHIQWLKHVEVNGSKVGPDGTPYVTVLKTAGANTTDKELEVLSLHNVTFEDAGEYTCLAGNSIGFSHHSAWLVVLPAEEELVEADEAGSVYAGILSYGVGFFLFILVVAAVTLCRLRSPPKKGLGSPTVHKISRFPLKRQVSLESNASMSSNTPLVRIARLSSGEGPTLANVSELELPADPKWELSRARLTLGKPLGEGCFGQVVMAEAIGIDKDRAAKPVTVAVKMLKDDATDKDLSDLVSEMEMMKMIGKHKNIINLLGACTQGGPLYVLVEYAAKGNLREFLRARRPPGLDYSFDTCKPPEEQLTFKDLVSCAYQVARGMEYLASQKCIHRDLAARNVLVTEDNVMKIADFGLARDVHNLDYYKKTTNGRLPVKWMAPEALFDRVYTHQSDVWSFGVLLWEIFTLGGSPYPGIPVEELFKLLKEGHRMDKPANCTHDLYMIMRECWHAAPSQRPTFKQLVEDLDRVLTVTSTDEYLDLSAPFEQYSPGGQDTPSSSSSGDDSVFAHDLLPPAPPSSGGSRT
T7 sequence (P10721 26-976): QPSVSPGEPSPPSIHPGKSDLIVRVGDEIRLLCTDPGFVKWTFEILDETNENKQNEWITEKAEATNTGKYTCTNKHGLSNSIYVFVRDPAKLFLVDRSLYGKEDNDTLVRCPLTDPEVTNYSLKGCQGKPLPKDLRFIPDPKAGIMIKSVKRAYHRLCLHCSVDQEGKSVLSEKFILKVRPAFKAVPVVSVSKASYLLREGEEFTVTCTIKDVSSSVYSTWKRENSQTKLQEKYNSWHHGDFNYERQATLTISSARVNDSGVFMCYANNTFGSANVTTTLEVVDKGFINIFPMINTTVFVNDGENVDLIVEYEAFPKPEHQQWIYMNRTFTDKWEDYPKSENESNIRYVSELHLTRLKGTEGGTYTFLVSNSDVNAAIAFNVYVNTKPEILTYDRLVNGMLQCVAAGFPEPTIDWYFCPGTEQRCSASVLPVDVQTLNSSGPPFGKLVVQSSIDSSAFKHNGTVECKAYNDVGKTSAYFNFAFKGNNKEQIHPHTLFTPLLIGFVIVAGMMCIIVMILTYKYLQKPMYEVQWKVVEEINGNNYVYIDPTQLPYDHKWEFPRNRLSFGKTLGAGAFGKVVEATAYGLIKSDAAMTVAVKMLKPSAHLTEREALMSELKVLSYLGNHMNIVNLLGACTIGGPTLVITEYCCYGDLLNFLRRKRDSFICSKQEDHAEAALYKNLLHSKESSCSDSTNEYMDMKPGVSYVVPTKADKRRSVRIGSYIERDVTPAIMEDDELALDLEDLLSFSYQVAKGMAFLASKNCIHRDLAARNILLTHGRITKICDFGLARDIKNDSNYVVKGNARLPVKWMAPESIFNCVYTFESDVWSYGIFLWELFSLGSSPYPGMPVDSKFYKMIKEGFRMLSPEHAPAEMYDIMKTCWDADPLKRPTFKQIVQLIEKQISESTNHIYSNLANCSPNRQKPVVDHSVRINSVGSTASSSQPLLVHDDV
T26 sequence (P11362 22-822): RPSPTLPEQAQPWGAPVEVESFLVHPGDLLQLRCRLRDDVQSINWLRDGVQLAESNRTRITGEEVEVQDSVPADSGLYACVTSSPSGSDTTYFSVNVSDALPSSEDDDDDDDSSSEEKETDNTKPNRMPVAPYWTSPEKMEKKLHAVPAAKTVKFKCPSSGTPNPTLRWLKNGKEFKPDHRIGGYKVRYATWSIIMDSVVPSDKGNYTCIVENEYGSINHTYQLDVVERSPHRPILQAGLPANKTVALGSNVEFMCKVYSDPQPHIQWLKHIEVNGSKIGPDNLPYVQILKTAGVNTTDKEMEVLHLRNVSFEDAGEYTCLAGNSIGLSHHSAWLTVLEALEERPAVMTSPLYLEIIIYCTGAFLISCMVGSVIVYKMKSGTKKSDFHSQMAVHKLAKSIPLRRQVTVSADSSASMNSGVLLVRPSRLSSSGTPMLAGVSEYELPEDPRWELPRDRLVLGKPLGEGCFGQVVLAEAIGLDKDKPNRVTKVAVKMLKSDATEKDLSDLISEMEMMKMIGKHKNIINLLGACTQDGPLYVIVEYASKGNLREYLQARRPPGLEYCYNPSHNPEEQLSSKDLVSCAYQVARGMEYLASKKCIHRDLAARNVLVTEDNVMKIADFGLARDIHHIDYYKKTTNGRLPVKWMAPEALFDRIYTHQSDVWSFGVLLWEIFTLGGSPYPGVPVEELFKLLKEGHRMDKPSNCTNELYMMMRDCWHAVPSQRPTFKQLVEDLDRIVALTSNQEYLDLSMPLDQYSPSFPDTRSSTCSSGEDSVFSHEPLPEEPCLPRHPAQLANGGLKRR
T3 sequence (P17948 27-1338): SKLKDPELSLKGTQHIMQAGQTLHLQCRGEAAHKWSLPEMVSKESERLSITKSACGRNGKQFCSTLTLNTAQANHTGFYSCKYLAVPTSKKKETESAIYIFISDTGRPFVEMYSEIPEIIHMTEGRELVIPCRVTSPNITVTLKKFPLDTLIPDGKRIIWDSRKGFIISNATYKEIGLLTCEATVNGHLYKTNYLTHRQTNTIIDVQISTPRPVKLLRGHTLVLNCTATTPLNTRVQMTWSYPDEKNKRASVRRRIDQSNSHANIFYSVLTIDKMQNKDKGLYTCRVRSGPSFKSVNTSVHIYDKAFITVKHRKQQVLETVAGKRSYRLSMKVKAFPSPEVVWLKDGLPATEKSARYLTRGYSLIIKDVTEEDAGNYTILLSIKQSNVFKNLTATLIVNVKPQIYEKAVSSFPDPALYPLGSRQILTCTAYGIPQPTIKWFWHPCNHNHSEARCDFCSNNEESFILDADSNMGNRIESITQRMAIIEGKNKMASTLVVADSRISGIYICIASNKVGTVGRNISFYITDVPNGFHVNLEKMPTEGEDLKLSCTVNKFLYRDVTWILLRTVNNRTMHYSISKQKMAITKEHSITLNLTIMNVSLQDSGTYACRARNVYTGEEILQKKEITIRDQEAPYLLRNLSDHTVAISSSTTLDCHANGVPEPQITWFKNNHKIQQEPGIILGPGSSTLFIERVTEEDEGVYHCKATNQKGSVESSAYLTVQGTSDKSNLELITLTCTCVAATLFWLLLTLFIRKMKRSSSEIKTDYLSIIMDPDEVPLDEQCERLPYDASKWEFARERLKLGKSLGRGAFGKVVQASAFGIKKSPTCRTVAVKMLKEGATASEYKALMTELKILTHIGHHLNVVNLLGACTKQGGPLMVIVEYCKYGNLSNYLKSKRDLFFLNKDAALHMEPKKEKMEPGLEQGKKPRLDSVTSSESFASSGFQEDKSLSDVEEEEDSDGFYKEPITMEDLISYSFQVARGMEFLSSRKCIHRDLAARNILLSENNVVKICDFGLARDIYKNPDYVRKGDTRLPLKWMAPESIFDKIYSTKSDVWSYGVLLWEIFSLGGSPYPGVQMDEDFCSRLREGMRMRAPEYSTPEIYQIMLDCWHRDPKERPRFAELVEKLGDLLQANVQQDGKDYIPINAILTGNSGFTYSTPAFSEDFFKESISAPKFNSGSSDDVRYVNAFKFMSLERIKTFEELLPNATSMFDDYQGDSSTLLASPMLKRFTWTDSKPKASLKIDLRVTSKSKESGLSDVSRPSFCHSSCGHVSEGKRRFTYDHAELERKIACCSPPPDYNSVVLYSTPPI
T22 sequence (P16234 24-1089): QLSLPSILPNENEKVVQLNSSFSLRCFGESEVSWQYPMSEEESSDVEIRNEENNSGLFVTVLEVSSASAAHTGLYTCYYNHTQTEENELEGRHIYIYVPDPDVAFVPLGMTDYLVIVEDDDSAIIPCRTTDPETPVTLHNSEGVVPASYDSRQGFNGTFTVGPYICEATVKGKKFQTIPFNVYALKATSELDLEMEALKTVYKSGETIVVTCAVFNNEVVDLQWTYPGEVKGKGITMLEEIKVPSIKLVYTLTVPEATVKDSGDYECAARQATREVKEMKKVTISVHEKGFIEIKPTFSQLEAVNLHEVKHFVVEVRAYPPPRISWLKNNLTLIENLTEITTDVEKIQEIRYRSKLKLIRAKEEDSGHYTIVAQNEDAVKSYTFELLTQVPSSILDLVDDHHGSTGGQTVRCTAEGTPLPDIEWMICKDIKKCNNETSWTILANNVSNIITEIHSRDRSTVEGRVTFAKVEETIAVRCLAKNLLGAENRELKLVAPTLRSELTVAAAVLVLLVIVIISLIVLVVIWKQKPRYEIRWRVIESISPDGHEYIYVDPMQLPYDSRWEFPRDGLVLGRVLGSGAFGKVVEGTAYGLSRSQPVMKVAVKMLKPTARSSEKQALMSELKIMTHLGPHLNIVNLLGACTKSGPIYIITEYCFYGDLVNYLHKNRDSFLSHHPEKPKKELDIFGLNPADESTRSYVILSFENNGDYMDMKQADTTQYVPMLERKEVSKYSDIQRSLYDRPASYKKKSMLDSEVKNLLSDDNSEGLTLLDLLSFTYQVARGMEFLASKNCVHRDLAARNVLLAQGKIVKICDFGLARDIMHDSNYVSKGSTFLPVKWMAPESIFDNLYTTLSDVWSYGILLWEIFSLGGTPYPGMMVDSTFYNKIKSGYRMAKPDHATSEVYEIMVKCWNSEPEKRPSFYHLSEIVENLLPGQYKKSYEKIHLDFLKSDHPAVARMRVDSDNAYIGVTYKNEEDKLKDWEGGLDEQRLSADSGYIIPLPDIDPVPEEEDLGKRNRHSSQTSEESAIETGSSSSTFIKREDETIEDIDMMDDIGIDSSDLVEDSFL

inhibition at 1 µM (SAPK2a (h)): 82 ± 2% | inhibition at 1 µM (CDK2/cyclin E (h)): 8 ± 1% | inhibition at 1 µM (VEGFR-1; 1 μM, mean ± S.D., read-out: % inhibition at 1 μM, VEGFR-1 (h)): 99% | IC50 (VEGFR-1; in vitro kinase assay): 3 nM | inhibition at 1 µM (AMPKα1 (h)): 0% | inhibition at 1 µM (MAPK1 (h)): 4 ± 5% | inhibition at 1 µM (CDK9/cyclin T1 (h)): 54 ± 4% | inhibition at 1 µM (cKit; 1 μM, mean ± S.D., read-out: % inhibition at 1 μM, cKit(h)): 99% | IC50 (cKit; in vitro kinase assay): 108 nM | inhibition at 1 µM (PKCδ (h)): 0% | inhibition at 1 µM (PKBβ (h)): 14 ± 4% | inhibition at 1 µM (PKCβII (h)): 8 ± 3% | inhibition at 1 µM (CDK3/cyclin E (h)): 6 ± 2% | inhibition at 1 µM (FGFR3; 1 μM, mean ± S.D., read-out: % inhibition at 1 μM, FGFR3 (h)): 96% | IC50 (FGFR3; in vitro kinase assay): 43 nM | inhibition at 1 µM (PKCμ (h)): 7 ± 1% | inhibition at 1 µM (PhKγ2 (h)): 0% | inhibition at 1 µM (MAPK2 (h)): 0% | inhibition at 1 µM (CaMKIIδ (h)): 41 ± 3% | inhibition at 1 µM (PKCβI (h)): 7 ± 5% | inhibition at 1 µM (CDK5/p25 (h)): 47 ± 2% | inhibition at 1 µM (PKCα (h)): 10 ± 1% | inhibition at 1 µM (CDK5/p35 (h)): 38 ± 3% | inhibition at 1 µM (Abl (h)): 100 ± 2% | inhibition at 1 µM (PDGFRα; 1 μM, mean ± S.D., read-out: % inhibition at 1 μM, PDGFRα (h)): 93% | IC50 (PDGFRα; in vitro kinase assay): 162 nM | inhibition at 1 µM (PDGFRβ; 1 μM, mean ± S.D., read-out: % inhibition at 1 μM, PDGFRβ (h)): 95 ± 1% | IC50 (PDGFRβ; in vitro kinase assay): 70 nM | inhibition at 1 µM (CaMKIIγ (h)): 37 ± 2% | inhibition at 1 µM (Lyn (h)): 98 ± 1% | inhibition at 1 µM (FGFR1; 1 μM, mean ± S.D., read-out: % inhibition at 1 μM, FGFR1 (h)): 98 ± 1% | IC50 (FGFR1; in vitro kinase assay): 28 nM
SMILES: Cc1ccc(Nc2nccc(N(C)c3ccc4[nH]ccc4c3)n2)cc1S(N)(=O)=O [MKP101]
Inhibition of EGFR phosphorylation (phosphorylated EGFR): reduced the levels of phosphorylated EGFR

From article PMC4581874 (PLoS ONE, 2015)
